From PubChem BioAssay AID256 (DTP/NCI, 2004)
“And” between values parts separate entries of the source, which are not always exact repeats. Equal values may be shown once. Toxic doses and inconclusive results are not listed.

System: CD2F1 mice, L1210 leukemia ip, survival T/C
Experiment: NCI In Vivo Anticancer Drug Screen. Data for tumor model L1210 Leukemia (intraperitoneal) in CD2F1 (CDF1) mice
Conditions: endpoint: mean survival time, higher = longer survival
Summary of the method: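 Ratio T/C, where T is the treated-group value and C the vehicle-dosed control value, from mice implanted with a transplantable tumor.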

[1] = dose: 100.0 mg/kg/injection, schedule: Q01DX009 (ip), vehicle: saline with Tween-80
[2] = dose: 100.0 mg/kg/injection, schedule: Q04DX003 (ip), vehicle: saline with Tween-80
[3] = dose: 200.0 mg/kg/injection, schedule: Q01DX009 (ip), vehicle: saline with Tween-80
[4] = dose: 200.0 mg/kg/injection, schedule: Q04DX003 (ip), vehicle: saline with Tween-80
[5] = dose: 400.0 mg/kg/injection, schedule: Q04DX003 (ip), vehicle: saline with Tween-80
[6] = dose: 400.0 mg/kg/injection, schedule: Q01DX009 (ip), vehicle: saline with Tween-80

SMILES: C=CCNC(=O)NCC=C
- T/C (dose: 3.13 mg/kg/injection, schedule: Q01DX009 (ip), vehicle: saline): 102 % of control and 110 % of control (2×)
- T/C (dose: 12.5 mg/kg/injection, schedule: Q01DX005 (ip), vehicle: saline): 102 % of control
- T/C (dose: 12.5 mg/kg/injection, schedule: Q02DX005 (ip), vehicle: saline): 97 % of control
- T/C (dose: 12.5 mg/kg/injection, schedule: Q04DX003 (ip), vehicle: saline): 100 % of control
- T/C (dose: 25.0 mg/kg/injection, schedule: Q01DX005 (ip), vehicle: saline): 105 % of control
- T/C (dose: 25.0 mg/kg/injection, schedule: Q02DX005 (ip), vehicle: saline): 100 % of control
- T/C (dose: 25.0 mg/kg/injection, schedule: Q04DX003 (ip), vehicle: saline): 102 % of control
- T/C (dose: 50.0 mg/kg/injection, schedule: Q01DX005 (ip), vehicle: saline): 103 % of control
- T/C (dose: 50.0 mg/kg/injection, schedule: Q02DX005 (ip), vehicle: saline): 103 % of control
- T/C (dose: 50.0 mg/kg/injection, schedule: Q04DX003 (ip), vehicle: saline): 103 % of control
- T/C (dose: 100.0 mg/kg/injection, schedule: Q01DX005 (ip), vehicle: saline): 109 % of control
- T/C (dose: 100.0 mg/kg/injection, schedule: Q01DX006 (ip), vehicle: saline): 154 % of control
- T/C (dose: 100.0 mg/kg/injection, schedule: Q02DX005 (ip), vehicle: saline): 105 % of control
- T/C (dose: 100.0 mg/kg/injection, schedule: Q03DX003 (ip), vehicle: saline): 120 % of control
- T/C (dose: 100.0 mg/kg/injection, schedule: Q04DX003 (ip), vehicle: saline): 115 % of control and 109 % of control
- T/C (dose: 200.0 mg/kg/injection, schedule: Q01DX006 (ip), vehicle: saline): 168 % of control
- T/C (dose: 200.0 mg/kg/injection, schedule: Q02DX005 (ip), vehicle: saline): 109 % of control
- T/C (dose: 200.0 mg/kg/injection, schedule: Q04DX003 (ip), vehicle: saline): 115 % of control and 120 % of control
- T/C (dose: 400.0 mg/kg/injection, schedule: Q02DX005 (ip), vehicle: saline): 115 % of control
- T/C (dose: 400.0 mg/kg/injection, schedule: Q04DX003 (ip), vehicle: saline): 97 % of control

SMILES: CC1(c2ccccc2)C(C#N)C(=O)NC(=O)C1C#N (stereo not drawn)
- T/C [1]: 94 % of control
- T/C [2]: 102 % of control
- T/C [3]: 93 % of control
- T/C [4]: 91 % of control
- T/C [5]: 91 % of control

SMILES: O=C(O)c1ccc(Nc2c3ccccc3nc3ccccc23)cc1
- T/C (dose: 44.0 mg/kg/injection, schedule: Q01DX009 (ip), vehicle: Klucel (hydroxypropylcellulose) (HPC)): 170 % of control and 179 % of control
- T/C (dose: 66.0 mg/kg/injection, schedule: Q01DX009 (ip), vehicle: Klucel (hydroxypropylcellulose) (HPC)): 207 % of control and 225 % of control
- T/C (dose: 75.0 mg/kg/injection, schedule: Q01DX001 (ip), vehicle: Klucel (hydroxypropylcellulose) (HPC)): 121 % of control
- T/C (dose: 75.0 mg/kg/injection, schedule: Q04DX003 (ip), vehicle: Klucel (hydroxypropylcellulose) (HPC)): 154 % of control
- T/C (dose: 88.0 mg/kg/injection, schedule: Q01DX001 (ip), vehicle: Klucel (hydroxypropylcellulose) (HPC)): 119 % of control
- T/C (dose: 100.0 mg/kg/injection, schedule: Q01DX009 (ip), vehicle: Klucel (hydroxypropylcellulose) (HPC)): 167 % of control and 184 % of control
- T/C (dose: 100.0 mg/kg/injection, schedule: Q04DX003 (ip), vehicle: Klucel (hydroxypropylcellulose) (HPC)): 162 % of control
- T/C (dose: 133.0 mg/kg/injection, schedule: Q04DX002 (ip), vehicle: Klucel (hydroxypropylcellulose) (HPC)): 167 % of control
- T/C (dose: 150.0 mg/kg/injection, schedule: Q04DX002 (ip), vehicle: Klucel (hydroxypropylcellulose) (HPC)): 166 % of control
- T/C (dose: 150.0 mg/kg/injection, schedule: Q04DX003 (ip), vehicle: Klucel (hydroxypropylcellulose) (HPC)): 172 % of control and 223 % of control
- T/C (dose: 200.0 mg/kg/injection, schedule: Q04DX002 (ip), vehicle: Klucel (hydroxypropylcellulose) (HPC)): 223 % of control
- T/C (dose: 225.0 mg/kg/injection, schedule: Q04DX003 (ip), vehicle: Klucel (hydroxypropylcellulose) (HPC)): 301 % of control
- T/C (dose: 300.0 mg/kg/injection, schedule: Q01DX001 (ip), vehicle: Klucel (hydroxypropylcellulose) (HPC)): 171 % of control and 201 % of control
- T/C (dose: 300.0 mg/kg/injection, schedule: Q04DX002 (ip), vehicle: Klucel (hydroxypropylcellulose) (HPC)): 212 % of control and 293 % of control
- T/C (dose: 300.0 mg/kg/injection, schedule: Q04DX003 (ip), vehicle: Klucel (hydroxypropylcellulose) (HPC)): 118 % of control
- T/C (dose: 450.0 mg/kg/injection, schedule: Q04DX002 (ip), vehicle: Klucel (hydroxypropylcellulose) (HPC)): 225 % of control

SMILES: CNC(=O)OC[C@H]1C2=C(C(=O)C(C)=C(N)C2=O)N2C[C@H]3N[C@H]3[C@@]12OC
- T/C (dose: 13.75 mg/kg/injection, schedule: Q01DX001 (ip), vehicle: carboxymethylcellulose (CMC)): 113 % of control

SMILES: OC1(c2ccccc2)c2cc(-c3ccccc3)c(-c3ccccc3)cc2C(c2ccccc2)(c2ccccc2)C1(O)c1ccccc1 (stereo not drawn)
- T/C (dose: 50.0 mg/kg/injection, schedule: Q01DX001 (ip), vehicle: saline with Tween-80): 96 % of control
- T/C (dose: 100.0 mg/kg/injection, schedule: Q01DX001 (ip), vehicle: saline with Tween-80): 96 % of control
- T/C (dose: 200.0 mg/kg/injection, schedule: Q01DX001 (ip), vehicle: saline with Tween-80): 96 % of control

SMILES: O=C1CCNC(=O)N1
- T/C [1]: 93 % of control
- T/C [2]: 106 % of control
- T/C [3]: 98 % of control
- T/C [4]: 101 % of control
- T/C [6]: 93 % of control
- T/C [5]: 95 % of control

SMILES: CC(=O)Nc1ccc2c(c1)Cc1ccccc1-2
- T/C [1]: 101 % of control
- T/C [2]: 87 % of control
- T/C [3]: 95 % of control
- T/C [4]: 101 % of control
- T/C [6]: 101 % of control
- T/C [5]: 90 % of control

SMILES: CN(C)c1ccc2nc(CC(O)(C(F)(F)F)C(F)(F)F)ccc2c1
- T/C (dose: 25.0 mg/kg/injection, schedule: Q01DX009 (ip), vehicle: saline with Tween-80): 95 % of control
- T/C (dose: 50.0 mg/kg/injection, schedule: Q01DX009 (ip), vehicle: saline with Tween-80): 95 % of control
- T/C [1]: 93 % of control
- T/C [2]: 89 % of control

SMILES: CCCCSC#N
- T/C (dose: 7.5 mg/kg/injection, schedule: Q01DX009 (ip), vehicle: saline with Tween-80): 95 % of control
- T/C (dose: 15.0 mg/kg/injection, schedule: Q01DX009 (ip), vehicle: saline with Tween-80): 100 % of control
- T/C (dose: 30.0 mg/kg/injection, schedule: Q01DX009 (ip), vehicle: saline with Tween-80): 91 % of control

SMILES: CCN(CC)CC[n+]1ccc2c(C)c3[nH]c4ccc(O)cc4c3c(C)c2c1
- T/C (dose: 3.12 mg/kg/injection, schedule: Q01DX009 (ip), vehicle: suspension in saline): 179 % of control
- T/C (dose: 6.25 mg/kg/injection, schedule: Q01DX009 (ip), vehicle: suspension in saline): 228 % of control
- T/C (dose: 12.5 mg/kg/injection, schedule: Q01DX009 (ip), vehicle: suspension in saline): 170 % of control and 262 % of control
- T/C (dose: 25.0 mg/kg/injection, schedule: Q01DX009 (ip), vehicle: suspension in saline): 116 % of control and 111 % of control
- T/C (dose: 50.0 mg/kg/injection, schedule: Q01DX009 (ip), vehicle: saline): 102 % of control
- T/C (dose: 50.0 mg/kg/injection, schedule: Q01DX009 (ip), vehicle: suspension in saline): 92 % of control

SMILES: COC(=O)Nc1ccc(Cl)cc1[N+](=O)[O-]
- T/C (dose: 100.0 mg/kg/injection, schedule: Q04DX002 (ip), vehicle: saline with Tween-80): 95 % of control
- T/C (dose: 200.0 mg/kg/injection, schedule: Q04DX002 (ip), vehicle: saline with Tween-80): 95 % of control
- T/C (dose: 400.0 mg/kg/injection, schedule: Q04DX002 (ip), vehicle: saline with Tween-80): 91 % of control

SMILES: CN=C(N)N(C)C
- T/C (dose: 100.0 mg/kg/injection, schedule: Q01DX001 (ip), vehicle: saline): 101 % of control
- T/C (dose: 200.0 mg/kg/injection, schedule: Q01DX001 (ip), vehicle: saline): 101 % of control
- T/C (dose: 400.0 mg/kg/injection, schedule: Q01DX001 (ip), vehicle: saline): 95 % of control

SMILES: O=C(O)c1cc(C(=O)O)c(C(=O)O)cc1C(=O)O.[NH-]C1CCCC1.[NH-]C1CCCC1.[NH-]C1CCCC1.[NH-]C1CCCC1.[Pt+2].[Pt+2]
- T/C (dose: 3.12 mg/kg/injection, schedule: Q04DX003 (ip), vehicle: distilled water + Tween-80): 103 % of control
- T/C (dose: 6.25 mg/kg/injection, schedule: Q04DX003 (ip), vehicle: distilled water + Tween-80): 107 % of control
- T/C (dose: 12.5 mg/kg/injection, schedule: Q04DX003 (ip), vehicle: distilled water + Tween-80): 108 % of control
- T/C (dose: 25.0 mg/kg/injection, schedule: Q04DX003 (ip), vehicle: distilled water + Tween-80): 111 % of control
- T/C (dose: 50.0 mg/kg/injection, schedule: Q04DX003 (ip), vehicle: distilled water + Tween-80): 108 % of control
- T/C (dose: 100.0 mg/kg/injection, schedule: Q04DX003 (ip), vehicle: distilled water + Tween-80): 113 % of control
- T/C (dose: 200.0 mg/kg/injection, schedule: Q04DX003 (ip), vehicle: distilled water + Tween-80): 124 % of control
